Laboratory results published in patent US8927596B2, “Antischistosomal agent” (National University Corporation Okayama University, priority 2008, dated 2015).

Tests used:
immature schistosomes = conditions: as reported in the literature (Non Patent Literature 1); cited from earlier work
[1] = tested on: schistosomes (Schistosoma mansoni); assay: Number of schistosomes and number of eggs produced per adult female schistosome (Experimental Example 2); type: in vivo; conditions: infected BALB/c mice, oral, measured on Week 9
Protocol: 100 μl of the antischistosomal agent of the present invention were orally administered to mice (BALB/c mice, 5-week-old) infected with schistosomes (Schistosoma mansoni) in accordance with a drug dosage regimen of FIG. 4. As a control, 100 μl of olive oil was administered. On Week 9 after the infection, the mice were sacrificed with an overdose of anesthetic, and the number of schistosomes recovered and the number of eggs produced per adult female schistosome were measured. The number of schistosomes was measured in the same manner as in Experimental Example 1, and the number of eggs produced was also counted under a microscope.

[2] = tested on: schistosomes (Schistosoma mansoni); assay: Number of schistosomes in vivo (Experimental Example 1); conditions: infected BALB/c mice, oral, administered on Days 14 and 15 after the infection, counted on Week 6 after the infection
Protocol: 100 μl of the antischistosomal agent of the present invention were orally administered to mice (BALB/c mice, 5-week-old) infected with schistosomes (Schistosoma mansoni) in accordance with a drug dosage regimen of FIG. 2. As a control, 100 μl of olive oil was administered. On Week 6 after the infection, the mice were sacrificed with an overdose of anesthetic, and the number of schistosomes recovered was counted under a microscope.

[3] = tested on: schistosomes (Schistosoma mansoni); assay: Macroscopic findings on liver lesions in schistosome-infected mice (Experimental Example 3); type: in vivo; conditions: infected BALB/c mice, viscera observed macroscopically
[4] = administration on each of Weeks 5 to 7 after the infection

SMILES | effect on schistosomes at the immature stage (immature schistosomes) | number of eggs produced reduced ([1]; administration on Week 5 only after the infection) [%] | number of eggs produced per adult female schistosome reduced as compared to the olive oil administration group [1, 4] [%] | number of schistosomes as compared to the olive oil administration group [1, 4] | number of schistosomes reduced as compared to the olive oil administration group [2] [%] | liver lesions due to eggs of schistosomes (macroscopic) ([3]; administered on Week 5 after the infection) | enlargement of spleen [3]
O=C(C1CCCCC1)N1CC(=O)N2CCc3ccccc3C2C1 (stereo not shown) [praziquantel] | not effective |  |  |  |  |  | 
C1CCCCCC2(CCCCC1)OOCCCOO2 [antischistosomal agent, 1,2,6,7-tetraoxaspiro[7.11]nonadecane] |  | 87 | 98 | not significantly reduced | 86 | few liver lesions | inhibited
